According to patent US11249071B2, “Reactivation of x chromosome genes” (CALIFORNIA INSTITUTE OF TECHNOLOGY, priority 2015, dated 2022):
“Also recorded” adds a separate entry of the source.

Test system: MLF cells having silenced X genes
Assay: X-chromosome reactivation assay (single molecule RNA FISH) in MLF cells treated with inhibitors
Type: cell-based
Settings: mouse MLF cells, HDAC3 inhibitor alone (Scriptaid 100 nM), 48 hours, FIGS. 7A-7B
Protocol: 5,000 Mouse MLF cells were plated on a poly-D-lysine (Sigma) and 0.2% gelatin (Sigma)-coated #1.5 coverslip placed into wells of a 24-well plate containing HEK media (DMEM, 10% Gemini Benchmark FBS, 1×L-glutamine, 1× sodium pyruvate, 1×NEAA, 1× Pen/Strep; Life Technologies unless otherwise indicated). After 16 hours, inhibitors were added into the media and incubated the cells for 48 hours. The inhibitors and the concentration used were: 5-Azacytidine (6 μM; Sigma, A2385), 5-Aza-2′-deoxycytidine ([…]; Sigma, A3656), RG 108 (200 μM; Abcam, ab141013), Trichostatin A (5 μM; Sigma, T8552), and Scriptaid (100 nM; Sigma, S7817).
Coverslips from siRNA transfection or inhibitor treatment were fixed in Histochoice (Sigma) for 10 min, washed thoroughly in PBS, and dehydrated in ethanol for storage until FISH staining. Single molecule RNA Fluorescence in situ hybridization (FISH) experiments were done using QuantiGene ViewRNA ISH Cell Assay (Affymetrix) and QuantiGene ViewRNA ISH Cell 740 Module (Affymetrix) according to manufacturer's protocol. […]
Cells were stained for target mRNAs and siRNA-targeted mRNA by FISH and imaged. Images were then analyzed using Matlab R2013b (described below). […] Within these cells, the copy number of target mRNAs were quantified using a peak finding method (described below) and compared across conditions. The mRNA levels were quantified for 50 individual cells. […]

Compound: O=C(CCCCCN1C(=O)c2cccc3cccc(c23)C1=O)NO [Scriptaid]
- expression / reactivation of the Xist-dependent silenced Gpc4 gene, measured by levels of Gpc4 mRNA: resulting in expression of Gpc4; also recorded: resulting in the reactivation of the Xist-dependent silent Gpc4 gene
